Experimental data reported in PubChem BioAssay (NCI).
Several values for one entry are separate records, joined by “and”; a condition that tells them apart may be missing. Equal values may be shown once.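 Each compound was tested at five concentrations against cells in 96-well plates for 48 hours. GI50 is the concentration that inhibits growth by half. Definition used: TGI = concentration required for complete inhibition of growth.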

Key:
Experiment in all cases: NCI anticancer screen, dose series, 48 h
UO-31 renal = test system: UO-31 renal
HOP-92 NSCLC = test system: HOP-92 NSCLC
RXF 393 renal = test system: RXF 393 renal
COLO 205 colon = test system: COLO 205 colon
IGROV1 ovarian = test system: IGROV1 ovarian
OVCAR-3 ovarian = test system: OVCAR-3 ovarian
SN12C renal = test system: SN12C renal
CCRF-CEM leukemia = test system: CCRF-CEM leukemia
HS 578T breast = test system: HS 578T breast
KM12 colon = test system: KM12 colon

Row | SMILES | GI50 (UO-31 renal) | TGI (UO-31 renal) | GI50 (HOP-92 NSCLC) | TGI (HOP-92 NSCLC) | GI50 (RXF 393 renal) | TGI (RXF 393 renal) | GI50 (COLO 205 colon) | TGI (COLO 205 colon) | GI50 (IGROV1 ovarian) | TGI (IGROV1 ovarian) | GI50 (OVCAR-3 ovarian) | TGI (OVCAR-3 ovarian) | GI50 (SN12C renal) | TGI (SN12C renal) | GI50 (CCRF-CEM leukemia) | TGI (CCRF-CEM leukemia) | GI50 (HS 578T breast) | TGI (HS 578T breast) | GI50 (KM12 colon) | TGI (KM12 colon)
1 | CCOC(=O)c1cc2c(n1Cc1cccc(OC)c1)-c1oncc1CC2 | 1.91 µM | 78.5 µM | 10.5 µM | > 100 µM | 1.72 µM | 35.9 µM | 0.508 µM | 3.99 µM | 0.78 µM | > 100 µM | 0.38 µM | 2.66 µM | 13.5 µM | > 100 µM | 1430 nM | > 100 µM | 0.742 µM | 8.16 µM | 0.55 µM | > 100 µM
2 | CC(=O)OCC1OC(n2cc(F)c(=O)[nH]c2=O)C(OC(C)=O)C1OC(C)=O (stereo unspecified) | – | > 96.1 µM | – | > 55.8 µM | – | 99.2 µM | – | > 83.2 µM | – | > 100 µM | – | 91.8 µM | – | > 100 µM | – | > 100 µM | – | > 100 µM | – | > 100 µM
3 | COc1ccc(C(=O)c2cc3c(N)c(C(=O)Nc4cccc(Cl)c4)sc3nc2C)cc1 | 2.5 µM | > 33.3 µM | 30.7 µM | > 33.3 µM | 0.655 µM | 2.08 µM | 1.67 µM | > 33.3 µM | 1.76 µM | > 33.3 µM | 1.01 µM | 3.12 µM | 1.96 µM | > 33.3 µM | 1200 nM | > 33.3 µM | 0.957 µM | 6.62 µM | 1.25 µM | > 33.3 µM
4 | CC(C)Oc1cc(OCC(=O)O)cc(C(=O)N(CCC(N)=O)C(=O)Nc2ccc(C(=O)O)cc2OC(C)C)c1 | > 100 µM | > 100 µM | > 100 µM | > 100 µM | > 100 µM | > 100 µM | > 100 µM | > 100 µM | > 100 µM | > 100 µM | > 100 µM | > 100 µM | > 100 µM | > 100 µM | > 100000 nM | > 100 µM | > 100 µM | > 100 µM | > 100 µM | > 100 µM
5 | CC[C@]1(O)C[C@@H]2CN(Cc3c([nH]c4ccccc34)[C@@](C(=O)OC)(c3cc4c(cc3OC)N(C)[C@H]3[C@@](O)(C(=O)OC)[C@H](OC(C)=O)[C@]5(CC)[C@@H]6C[C@@H]6CN6CC[C@]43[C@@H]65)C2)C1 | > 3.59 µM | > 4.38 µM | 0.0314 µM | > 4.38 µM | 0.111 µM | > 4.38 µM | 0.0298 µM | 0.252 µM | 0.452 µM | > 4.38 µM | 0.0162 µM | – | 0.232 µM | > 4.38 µM | 36.9 nM | > 4.38 µM | 0.0858 µM | > 1.33 µM | 0.0408 µM | > 4.38 µM
6 | FC(F)(F)c1ccc2nc(-c3nc(-c4ccccc4)n4ccccc34)[nH]c2c1 | 4.37 µM | 18.6 µM | 3.66 µM | 17.4 µM | 2.64 µM | 6.98 µM | 4.88 µM | > 100 µM | 4.03 µM | 20.5 µM | 4.08 µM | 16.3 µM | 2.59 µM | 8.56 µM | 5640 nM | > 100 µM | 3.65 µM | 33.6 µM | 5.11 µM | > 100 µM
7 | O=P(O)(O)OC1C(OP(=O)(O)O)C(OP(=O)(O)O)C(OP(=O)(O)O)C(OP(=O)(O)O)C1OP(=O)(O)O (stereo unspecified) | > 2000 µM | > 2000 µM | > 100 µM | > 1880 µM | > 500 µM and 1720 µM | > 2000 µM | > 100 µM and > 500 µM and 1940 µM | > 2000 µM | > 2000 µM | > 2000 µM | > 2000 µM | > 2000 µM | > 2000 µM | > 2000 µM | > 100000 nM | > 2000 µM | > 2000 µM | > 2000 µM | > 1190 µM | > 2000 µM
8 | CC(C)(O)Cn1c(=O)c(Oc2ccc(F)cc2F)cc2cnc(NC3CCOCC3)nc21 | > 25 µM | > 25 µM | 7.79 µM | > 25 µM | > 25 µM | > 25 µM | > 25 µM | > 25 µM | > 25 µM | > 25 µM | > 25 µM | > 25 µM | > 25 µM | > 25 µM | > 25000 nM | > 25 µM | > 25 µM | > 25 µM | > 25 µM | > 25 µM
9 | O=C(Nc1ccc(Cl)cc1)NS(=O)(=O)c1ccc2c(c1)CCC2 | 21.5 µg/mL | > 76.3 µM and 42 µg/mL | 8.6 µg/mL | 31.5 µg/mL | 2.52 µg/mL | 79.3 µM and 22.8 µg/mL | – | > 60.8 µM | 4.37 µg/mL | 94.3 µM and 18.7 µg/mL | 5.61 µg/mL | 73.8 µM and 21.4 µg/mL | 20.3 µg/mL | > 100 µM and 43.1 µg/mL | 10.5 µg/mL | > 100 µM and 57.4 µg/mL | – | 13.1 µM | 19.1 µg/mL | 98.9 µM and 40.2 µg/mL
10 | COc1ccc([C@H]2c3cc(OC)c(OC)cc3C=C(C=O)C2CO)cc1OC (stereo partly specified) | 3.6 µM | > 100 µM | > 100 µM | > 100 µM | 3.27 µM | > 100 µM | 3.91 µM | 17.9 µM | 2.08 µM | 8.89 µM | 2.09 µM | 4.87 µM | 5.7 µM | > 100 µM | 19000 nM | > 100 µM | 2.72 µM | 17.3 µM | 2.9 µM | 43.6 µM
11 | CCc1cc(C(N)=O)ccc1-n1nc(C(C)C)c2c(-n3cnc(-c4cnn(C)c4)c3)ccnc21 | 3.25 µM | > 100 µM | 2.3 µM | 14.3 µM | 3.09 µM | > 100 µM | 0.387 µM | – | 4.15 µM | > 100 µM | 2.37 µM | > 100 µM | 0.761 µM | > 100 µM | 752 nM | > 100 µM | 12 µM | > 100 µM | 0.463 µM | 6.28 µM
12 | COc1ccc(/C=C2/SC(=Nc3c(C)nn(-c4ccccc4)c3N)NC2=O)cc1 | 2.83 µM | 19 µM | 1.4 µM | 14.4 µM | 14.5 µM | 47.8 µM | 3.84 µM | 19.2 µM | 5.2 µM | 28.8 µM | 2.6 µM | 5.9 µM | 8.39 µM | 55.2 µM | 2140 nM | 20.8 µM | 2.17 µM | 6.57 µM | 3.5 µM | 13.6 µM
13 | O=C(Nc1nc2ncn(CCOC(=O)c3ccccc3)c2c(=O)[nH]1)c1ccccc1 | – | > 100 µM | – | > 75.6 µM | – | > 93.2 µM | – | 23.6 µM | – | > 100 µM | – | > 100 µM | – | > 100 µM | – | > 100 µM | – | 51.7 µM | – | > 100 µM
14 | CC/C=C/[C@@H]1C=C[C@@H]2CCC[C@H]2[C@@H]1CC[C@H](O)[C@H](C)N | 1.77 µM | 4.91 µM | 1.41 µM | 3.89 µM | 1.94 µM | 4.17 µM | 1.36 µM | 2.64 µM | 1.5 µM | 2.92 µM | 1.59 µM | 2.93 µM | 4.25 µM | 18.6 µM | 4650 nM | 84.3 µM | 1.43 µM | 3.15 µM | 1.7 µM | 3.07 µM
15 | COc1ccccc1/C=C1\COc2ccc(O)c(O)c2C1=O | 1.04 µM | 2.24 µM | 2.98 µM | 20.8 µM | 1.51 µM | 2.97 µM | 3.14 µM | 8.98 µM | 1.46 µM | 4.21 µM | 0.834 µM | 6.68 µM | 1.48 µM | 5.31 µM | 286 nM | 2.11 µM | 3.6 µM | > 100 µM | 1.73 µM | 3.89 µM
